The values that follow come from patent US9914730B2, “Azaquinazoline inhibitors of Atypical protein Kinase C” (Ignyta, Inc., priority 2012, dated 2018).

This assay has as its target T1, full-length human PKCι (Homo sapiens, UniProt P41743).
T1 construct: Recombinant, full-length human PKCι expressed in Sf21 insect cells is also commercially available; purchased; host or cells: Sf21 insect cells
T1 sequence (P41743 1-596): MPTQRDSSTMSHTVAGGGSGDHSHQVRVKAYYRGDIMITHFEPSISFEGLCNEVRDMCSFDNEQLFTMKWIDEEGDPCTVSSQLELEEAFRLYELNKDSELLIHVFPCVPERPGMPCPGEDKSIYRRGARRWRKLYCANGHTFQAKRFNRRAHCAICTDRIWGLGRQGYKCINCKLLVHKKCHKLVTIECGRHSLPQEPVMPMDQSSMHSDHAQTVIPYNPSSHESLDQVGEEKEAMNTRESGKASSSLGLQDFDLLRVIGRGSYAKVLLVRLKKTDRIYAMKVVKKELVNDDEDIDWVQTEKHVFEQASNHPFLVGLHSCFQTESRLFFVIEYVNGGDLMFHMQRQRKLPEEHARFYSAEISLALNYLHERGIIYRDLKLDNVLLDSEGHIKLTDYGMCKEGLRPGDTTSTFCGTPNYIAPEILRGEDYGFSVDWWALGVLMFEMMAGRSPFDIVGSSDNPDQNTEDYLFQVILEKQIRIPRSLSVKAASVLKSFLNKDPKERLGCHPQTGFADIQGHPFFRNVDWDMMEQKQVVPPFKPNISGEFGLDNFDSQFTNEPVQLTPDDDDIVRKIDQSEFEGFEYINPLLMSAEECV
In words: PKCι IC50 IMAP assay, full-length PKCι at 150 μM ATP. The class given is biochemical. The note with it: read-out: IC50 in IMAP assay against full length PKCi at 150 μM ATP. The essentials: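 Recombinant full-length human PKCι (Sf21-expressed, typically 15 pM) phosphorylated 100 nM 5FAM-labelled PKCε pseudosubstrate-derived peptide with 150 μM ATP (5× KM^APP) in 18 mM tris-HCl pH7.5, 9 mM MgCl2, EGTA, DTT, 4% DMSO. After 60 min at room temperature, IMAP binding reagent was added for 2 h and fluorescence polarisation read.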
`COCCN1CCN(c2nc(-c3ccnc(Nc4ccc(F)cc4)c3)nc3cncc(C4CC4)c23)CC1` [Example 662, (4-{5-Cyclopropyl-4-[4-(2-methoxy-ethyl]-piperazin-1-yl]-pyrido[3,4-d]pyrimidin-2-yl}-pyridin-2-yl)-(4-fluoro-phenyl)-amine]: the IC50 was in the range of 1000 to 10000 nM.
The same measure for `CS(=O)(=O)CCN1CCN(c2nc(-c3ccnc(Nc4ccccc4)c3)nc3cncc(C4CC4)c23)CC1` [Example 663, (4-{5-Cyclopropyl-4-[4-(2-methanesulfonyl-ethyl)-piperazin-1-yl]-pyrido[3,4-d]pyrimidin-2-yl}-pyridin-2-yl)-phenyl-amine]: 100 to 1000 nM; for `CS(=O)(=O)CCN1CCN(c2nc(-c3ccnc(Nc4ccc(F)cc4)c3)nc3cncc(C4CC4)c23)CC1` [Example 664, (4-{5-Cyclopropyl-4-[4-(2-methanesulfonyl-ethyl)-piperazin-1-yl]-pyrido[3,4-d]pyrimidin-2-yl}-pyridin-2-yl)-(4-fluoro-phenyl)-amine]: 1000 to 10000 nM.
The same measure for `CS(=O)(=O)CCN1CCN(c2nc(-c3ccnc(NC(=O)C4CC4)c3)nc3cncc(C4CC4)c23)CC1` [Example 665, Cyclopropane-carboxylic acid (4-{5-cyclopropyl-4-[4-(2-methanesulfonyl-ethyl)-piperazin-1-yl]-pyrido[3,4-d]pyrimidin-2-yl}-pyridin-2-yl)-amide]: 1000 to 10000 nM; for `COCCN1CCN(c2nc(-c3ccnc(NC(=O)C4CC4)c3)nc3cncc(C4CC4)c23)CC1` [Example 666, Cyclopropane-carboxylic acid (4-{5-cyclopropyl-4-[4-(2-methoxy-ethyl)-piperazin-1-yl]-pyrido[3,4-d]pyrimidin-2-yl}-pyridin-2-yl)-amide]: 1000 to 10000 nM; for `Fc1ccc(C2CC2)cc1Nc1cc(-c2nc(N3CCNCC3)c3c(C4CC4)cncc3n2)ccn1` [Example 667, (5-Cyclopropyl-2-fluoro-phenyl)-[4-(5-cyclopropyl-4-piperazin-1-yl-pyrido[3,4-d]pyrimidin-2-yl)-pyridin-2-yl]-amine]: under 100 nM.
With `O=C(NCCN1CCCC1)C1CCN(c2nc(-c3ccnc(Nc4c(F)cccc4F)c3)nc3cncc(C4CC4)c23)CC1` [Example 668, 1-{5-Cyclopropyl-2-[2-(2,6-difluoro-phenylamino)-pyridin-4-yl]-pyrido[3,4-d]pyrimidin-4-yl}-piperidine-4-carboxylic acid (2-pyrrolidin-1-yl-ethyl)-amide] the figure was under 100 nM; with `CNC(=O)C1CCN(c2nc(-c3ccnc(Nc4c(F)cccc4F)c3)nc3cncc(C4CC4)c23)CC1` [Example 669, 1-{5-Cyclopropyl-2-[2-(2,6-difluoro-phenylamino)-pyridin-4-yl]-pyrido[3,4-d]pyrimidin-4-yl}-piperidine-4-carboxylic acid methylamide], 1000 to 10000 nM; with `Fc1ccnc(F)c1Nc1cc(-c2nc(N3CCNCC3)c3c(C4CC4)cncc3n2)ccn1` [Example 670, [4-(5-Cyclopropyl-4-piperazin-1-yl-pyrido[3,4-d]pyrimidin-2-yl)-pyridin-2-yl]-(2,4-difluoro-pyridin-3-yl)-amine], under 100 nM.
For the molecule `Fc1ccc(Nc2cc(-c3nc(N4CCNCC4)c4c(C5CC5)cncc4n3)ccn2)c(F)n1` [Example 671, [4-(5-Cyclopropyl-4-piperazin-1-yl-pyrido[3,4-d]pyrimidin-2-yl)-pyridin-2-yl]-(2,6-difluoro-pyridin-3-yl)-amine], the IC50 is under 100 nM.
With `Fc1ccc(Nc2cc(-c3nc(N4CCNCC4)c4c(C5CC5)cncc4n3)ccn2)cn1` [Example 672, [4-(5-Cyclopropyl-4-piperazin-1-yl-pyrido[3,4-d]pyrimidin-2-yl)-pyridin-2-yl]-(6-fluoro-pyridin-3-yl)-amine] the figure was under 100 nM; with `FC1(F)CCCC(Nc2cc(-c3nc(N4CCNCC4)c4c(C5CC5)cncc4n3)ccn2)C1` (stereo not drawn) [Example 673, [4-(5-Cyclopropyl-4-piperazin-1-yl-pyrido[3,4-d]pyrimidin-2-yl)-pyridin-2-yl]-(3,3-difluoro-cyclohexyl)-amine], under 100 nM.

For orientation: IC50 means the concentration that gives 50% inhibition.
